From patent US7968526B2, “Antisense oligonucleotides directed to ribonucleotide reductase R2 and uses thereof in the treatment of cancer” (Lorus Therapeutics Inc., priority 2003, dated 2011)
Entries after “also recorded” stand apart in the source; their conditions may differ.

How the values were obtained:
[1] = test system: A498 human kidney cancer cells; test: A498 kidney tumour xenograft in SCID mice, controls and chemotherapeutics (Example 7); assay type: in vivo, human cells in mice; conditions: oligonucleotides 10 mg/kg/2 days i.v., 5-FU 13 mg/kg/day×5, vinblastine 1 mg/kg/week, gemcitabine 100 mg/kg/week
Excerpt: CD-1 athymic female nude mice, BALB/c nu/nu nude mice, SCID, and SCID beige mice were purchased from Charles River Laboratories (Montreal, Canada) and experiments were typically initiated when the mice were 6-7 weeks old. […] Each experimental group typically contained 10 mice. After the size of tumour reached a mean tumour volume of 50-100 mm^3, treatment was initiated. […] Anti-tumour activity was estimated by the measurement of tumour volume with a calliper at two-three day intervals. Tumour volume was calculated by a formula L×W×H/2, where L indicates length, W indicates width and H indicates height. Within 24 hours after the last treatment, the animals were sacrificed and tumour and body weights were measured. Results of statistical analyses of the data are presented as P values in the figure legends.
Three additional treatment groups received: 5-FU (13 mg/kg/day×5), vinblastine (1 mg/kg/week) and gemcitabine (100 mg/kg/week). […] Caliper measurements at 1-week intervals were used to calculate tumour volumes. Each point in FIG. 28C represents mean tumour volume calculated from 10 animals per experimental group (with the exception of SEQ ID NO: 1 which was 8 animals). […] After 54 days the mice were sacrificed and the A498 tumours weighed. Each bar represents the mean tumour weight and standard error calculated for each treatment group.

[2] = test system: Caki-1 human renal cancer cells; test: Caki-1 renal tumour xenograft, combination with 5-FU or vinblastin (1.3); assay type: in vivo, human cells in mice; conditions: Caki (renal), CD-1 mouse as printed; SEQ ID NO:1 10 mg/kg i.v. every other day; 5-FU 13 mg/kg/day i.p.; vinblastin 0.6 mg/kg/week i.p.
Excerpt: All treatments were stopped at day 22. […] All treatments were stopped at day 32. […] All treatments were stopped at day 36.

[3] = test system: MDA-MB435-To.1 human Taxol-resistant breast adenocarcinoma cells; test: MDA-MB435-To.1 Taxol-resistant breast adenocarcinoma, fat pad, SCID mice (2.5); assay type: in vivo, human cells in mice
Method: (§1) BxPC-3 is a gemcitabine resistant call line. […] Gemcitabine was administered intravenously every three days at a dose of 100 mg/kg. Antitumour activities were estimated by the inhibition of tumour volume, which was measured with caliper. Each point represents mean tumour volume calculated from 10 animals per experimental group. […] Hela S3 is a hydroxyurea resistant cell line. […] Hydroxyurea was administered intraperitoneally every day at a dose of 250 mg/kg for 10 days. Cisplatin was administered intravenously once a week for three weeks at a dose of 4 mg/kg. Antitumour activities were estimated by the inhibition of tumour volume, which was measured with caliper. Each point represents mean tumour volume calculated from 10 animals per experimental group. […] Cisplatin was administered intravenously once a week for three weeks at a dose of 4 mg/kg. Taxol was administered intravenously once a week for three weeks at a dose of 10 mg/kg. Antitumour activities were estimated by the inhibition of tumour volume, which was measured with caliper. Each point represents mean tumour volume calculated from 10 animals per experimental group. […] Taxol was administered i.p. once a week at a dose of 10 mg/kg. Antitumour activities were estimated by the inhibition of tumour volume (FIG. 12A), which was measured with calipers. Each point represents mean tumour volume calculated from 10 animals per experimental group. Animals were sacrificed and tumour weights taken at the end of the study (FIG. 12C). […] Cisplatin was administered intravenously once a week for four weeks at a dose of 4 mg/kg. Taxol was administered intravenously once a week for four weeks at a dose of 20 mg/kg. Antitumour activities were estimated by the inhibition of tumour volume, which was measured with caliper. Each point represents mean tumour volume calculated from 9-10 animals per experimental group. […] Cisplatin was administered intravenously once a week for four weeks at a dose of 4 mg/kg. Antitumour activities were estimated by the inhibition of tumour volume, which was measured with caliper. Each point represents mean tumour volume calculated from 10 animals per experimental group. At the end of the study the animals were sacrificed and tumours weighed. […] Taxol was administered i.p. once a week at a dose of 10 mg/kg. Anti-tumour activity was estimated by the inhibition of tumour volume, which was measured with caliper. Each point represents mean tumour volume calculated from 10 animals per experimental group. In addition animals were sacrificed and tumour weights taken at the end of the study. […] CPT-11 was administered i.p. for 5 days at a dose of 20 mg/kg/day. Antitumour activities were estimated by the inhibition of tumour volume, which was measured with caliper. Each point represents mean tumour volume calculated from 10 animals per experimental group. Tumour weights were measured after animals were sacrificed at the end of the treatment. These cells are not resistant to CPT-11 which was used as a positive control.

[4] = test system: Human taxol-resistant promyelocytic leukaemia cells (HL-60); test: HL-60 taxol-resistant promyelocytic leukaemia tumour in SCID mice (2.7); assay type: in vivo, human cells in mice; conditions: SEQ ID NO:1 10 mg/kg i.v. every other day
Method: BxPC-3 is a gemcitabine resistant call line. […] Gemcitabine was administered intravenously every three days at a dose of 100 mg/kg. Antitumour activities were estimated by the inhibition of tumour volume, which was measured with caliper. Each point represents mean tumour volume calculated from 10 animals per experimental group. […] Hela S3 is a hydroxyurea resistant cell line. […] Hydroxyurea was administered intraperitoneally every day at a dose of 250 mg/kg for 10 days. Cisplatin was administered intravenously once a week for three weeks at a dose of 4 mg/kg. Antitumour activities were estimated by the inhibition of tumour volume, which was measured with caliper. Each point represents mean tumour volume calculated from 10 animals per experimental group. […] Cisplatin was administered intravenously once a week for three weeks at a dose of 4 mg/kg. Taxol was administered intravenously once a week for three weeks at a dose of 10 mg/kg. Antitumour activities were estimated by the inhibition of tumour volume, which was measured with caliper. Each point represents mean tumour volume calculated from 10 animals per experimental group. […] Taxol was administered i.p. once a week at a dose of 10 mg/kg. Antitumour activities were estimated by the inhibition of tumour volume (FIG. 12A), which was measured with calipers. Each point represents mean tumour volume calculated from 10 animals per experimental group. Animals were sacrificed and tumour weights taken at the end of the study (FIG. 12C). […] Cisplatin was administered intravenously once a week for four weeks at a dose of 4 mg/kg. Taxol was administered intravenously once a week for four weeks at a dose of 20 mg/kg. Antitumour activities were estimated by the inhibition of tumour volume, which was measured with caliper. Each point represents mean tumour volume calculated from 9-10 animals per experimental group. […] Cisplatin was administered intravenously once a week for four weeks at a dose of 4 mg/kg. Antitumour activities were estimated by the inhibition of tumour volume, which was measured with caliper. Each point represents mean tumour volume calculated from 10 animals per experimental group. At the end of the study the animals were sacrificed and tumours weighed. […] Taxol was administered i.p. once a week at a dose of 10 mg/kg. Anti-tumour activity was estimated by the inhibition of tumour volume, which was measured with caliper. Each point represents mean tumour volume calculated from 10 animals per experimental group. […] Antitumour activities were estimated by the inhibition of tumour volume, which was measured with caliper. Each point represents mean tumour volume calculated from 10 animals per experimental group. Tumour weights were measured after animals were sacrificed at the end of the treatment. […]

[5] = test system: MDA-CDDP-S4 human in vivo-selected Cisplatin-resistant breast adenocarcinoma cells; test: MDA-CDDP-S4 Cisplatin-resistant breast adenocarcinoma, fat pad, SCID mice (2.3); set-up: species or system human cells in mice; conditions: MDA-CDDP-S4 (breast), Cisplatin resistant, SCID; SEQ ID NO:1 10 mg/kg i.v. every other day 9 times; Taxol 10 mg/kg, Cisplatin 4 mg/kg i.v. weekly x3
Method: as §1

[6] = test system: SK-OV-3 human ovary adenocarcinoma cells; test: SK-OV-3 ovary tumour xenograft in CD-1 nude mice, combination with taxol or cisplatin (1.8); assay type: in vivo, human cells in mice; conditions: SK-OV-3 (ovary), CD-1; SEQ ID NO:1 10 mg/kg i.v. every other day 17 times; Taxol 10 mg/kg weekly; Cisplatin 4 mg/kg weekly
Method: (§2) After 52 days the mice were sacrificed and the tumours weighed. […] Mitoxantrone was administered intravenously once at the beginning of the treatments at a dose of 2 mg/kg (FIG. 4A) or once a week for four weeks at a reduced dose of 0.8 mg/kg (FIG. 4B). All treatments were stopped at day 50 (FIG. 4A) or 48 (FIG. 4B), respectively. […] Mitoxantrone was administered intravenously once at the beginning of the treatments at a dose of 2 mg/kg (FIG. 5A) or once a week for four weeks at a reduced dose of 0.8 mg/kg (FIG. 5B). All treatments were stopped at day 42 (FIG. 5A) or 38 (FIG. 5B), respectively. […] A2058 is a metastatic melanoma cell line. […] All treatments were stopped at day 24. […] Taxol was administered intravenously once a week at a dose of 10 mg/kg for three (FIG. 7A) or four weeks (FIG. 7C). Doxorubicin was administered intravenously once a week at a dose of 5 mg/kg for first three weeks (FIG. 7A) or for two weeks (FIG. 7C). All treatments were stopped at day 33 (FIG. 7A) or at day 26 (FIG. 7C), respectively. […] In FIG. 7C, antitumour activities were estimated by the inhibition of tumour volume, which was measured with calipers. Each point represents mean tumour volume calculated from 10 animals per experimental group. […] Taxol was administered intravenously once a week for first three weeks and intraperitoneally once a week for next two weeks at a dose of 10 mg/kg. Cisplatin was administered intravenously once a week for first three weeks and intraperitoneally once a week for next two weeks at a dose of 4 mg/kg. All treatments were stopped at day 40. Antitumour activities were estimated by the inhibition of tumour volume, which was measured with caliper. Each point represents mean tumour volume calculated from 9 animals per experimental group.

[7] = test system: MDA-CDDP-S4 human in vivo-selected Cisplatin-resistant breast adenocarcinoma cells; test: MDA-CDDP-S4 Cisplatin-resistant breast adenocarcinoma, fat pad, CB-17 SCID mice, combination with Taxol (2.4); set-up: species or system human cells in mice; conditions: MDA-CDDP-S4 (breast), Cisplatin resistant, SCID, SEQ ID NO:1 10 mg/kg i.v. every other day, Taxol 10 mg/kg i.p. weekly
Method: as §1

[8] = test system: MDA-MB-231 human breast cancer cells; test: MDA-MB-231 breast tumour xenograft in CD-1 nude mice, combination with taxol or doxorubicin (1.7); assay type: in vivo, human cells in mice; conditions: MDA-MB-231 (breast), CD-1; SEQ ID NO:1 10 mg/kg i.v. every other day; Taxol 10 mg/kg i.v. weekly; doxorubicin 5 mg/kg i.v. weekly
Method: as §2

[9] = test system: Hela S3 human cervix epitheloid carcinoma cells; test: Hela S3 hydroxyurea resistant cervix carcinoma xenograft in SCID mice; assay type: in vivo, human cells in mice
Method: as §1, with “12C). […] The effects of combined treatment were greater than either treatment alone.” for “12C).”

## CC[C@]1(O)C[C@@H]2CN(CCc3c([nH]c4ccccc34)[C@@](C(=O)OC)(c3cc4c(cc3OC)N(C)[C@H]3[C@@](O)(C(=O)OC)[C@H](OC(C)=O)[C@]5(CC)C=CCN6CC[C@]43[C@@H]65)C2)C1 [Vinblastine, vinblastine]
[1]
  Effect on tumour growth (volume and weight): ineffective in stabilization of the tumours; also recorded: at best, a delay in the rate of tumour growth
[2]
  Tumour weight as % of saline control: 26%

## O=c1[nH]cc(F)c(=O)[nH]1 [5-FU, 5-fluorouracil]
[1]
  Effect on tumour growth (volume and weight): ineffective in stabilization of the tumours; also recorded: tumours that were equal in volume and weight to tumours of saline-treated animals
[2]
  Tumour weight as % of saline control: 52%

## CC(=O)O[C@H]1C(=O)[C@@]2(C)[C@H]([C@H](OC(=O)c3ccccc3)[C@]3(O)C[C@H](OC(=O)[C@H](O)[C@@H](NC(=O)c4ccccc4)c4ccccc4)C(C)=C1C3(C)C)[C@]1(OC(C)=O)CO[C@@H]1C[C@@H]2O [Taxol, Paclitaxel, reference compound]
[3]; MDA-MB435-To.1 (breast), Taxol resistant, SCID, SEQ ID NO:1 10 mg/kg i.v. every other day 15 times, Taxol 20 mg/kg, Cisplatin 4 mg/kg i.v. weekly x4
  Tumour weight as % of saline control: 109%
[3]; MDA-MB435-To.1 Taxol-resistant, SCID mice, SEQ ID NO:1 10 mg/kg i.v. every other day, Cisplatin 4 mg/kg, Taxol 20 mg/kg i.v. weekly
  Antitumour effect (FIG. 13): ineffective against Taxol-resistant tumour
[4]; HL-60 (leukemia), Taxol resistant, SCID, Taxol 10 mg/kg i.p. weekly
  Tumour weight as % of saline control: 119%
[4]; HL-60 taxol-resistant, SCID mice, taxol 10 mg/kg i.p. weekly
  Antitumour effect (FIG. 15): no effect on tumour growth or weight
[5]
  Tumour weight as % of saline control: 32%
[6]
  tumour volume data as percentage of saline control: 49%
[7]; first of two printed values (study and repeat)
  Tumour weight as % of saline control: 26%
[7]; second of two printed values (study and repeat)
  Tumour weight as % of saline control: 61%
[8]
  Tumour weight as % of saline control: 58%

## NC(=O)NO [Hydroxyurea (HU), Hydroxyurea, reference compound]
[9]; Hela S3 (cervix), hydroxyurea resistant, SCID, SEQ ID NO:1 10 mg/kg i.v. every other day 6 times, Hydroxyurea 250 mg/kg i.p. daily 10 days, Cisplatin 4 mg/kg i.v. weekly x3
  Tumour weight as % of saline control: 92%
[9]; Hela S3 hydroxyurea resistant, SCID mice, SEQ ID NO:1 10 mg/kg i.v. every other day, Hydroxyurea 250 mg/kg i.p. daily, Cisplatin 4 mg/kg i.v. weekly
  Antitumour effect (tumour volume, FIG. 10): ineffective against Hydroxyurea-resistant tumour

## COc1cccc2c1C(=O)c1c(O)c3c(c(O)c1C2=O)C[C@@](O)(C(=O)CO)C[C@@H]3O[C@H]1C[C@H](N)[C@H](O)[C@H](C)O1 [Doxorubicin]
[8]
  Tumour weight as % of saline control: 41%
